Test results published in patent publication US8637050B2, “Peptide vaccines against group A streptococci” (The United States of America, as represented by the …, priority 2001, dated 2014).

What follows are sequences tested on rabbit sera prepared against whole M protein (assay: ELISA: peptide recognition by anti-M protein rabbit sera).
Type: binding
Description: Overlapping peptides representing each M type were assessed for their immunogenicity using ELISA and dot-immunoblot.
Levels of anti-M protein antibodies in mouse sera were determined by an enzyme-linked immunosorbent assay (ELISA) using either synthetic peptides or whole M protein as antigen. Microtiter plates (DYNEX Immulon 2 HB) were coated with 10 μg/ml antigen in 10 mM phosphate-buffered saline (PBS) at 4° C. overnight. Plates were rinsed three times with wash buffer (0.05% Tween 20 in 10 mM PBS, pH 7.2) and blocked with 1% BSA in PBS for one hour at 37° C. The appropriate test sera were applied at a starting dilution of 1:1000 and serially diluted two fold down the plate in PBS. Plates were incubated at 37° C. for 30 minutes and subsequently rinsed three times. Goat anti-rabbit or goat anti-mouse Ig-peroxidase conjugate diluted 1:10,000 in PBS was added to all wells and incubated for two hours at 37° C. Plates were rinsed three times with wash buffer and freshly prepared TMB peroxidase (Kirkegaard and Perry Laboratories) was added. Reactions were quenched with 0.18 M H2SO4 after 30 minutes at room temperature and OD450 was measured with a Labsystems Multiskan plate reader using Ascent software. ELISA titers are expressed as the reciprocal of the last dilution which gave a reading OD450>0.10.
The immunoreactivity of several synthetic peptides was determined by ELISA using rabbit sera prepared against whole M protein. The synthetic peptides are representative of relatively small portions of the M protein N-terminus; therefore, it was advantageous to determine if the epitopes contained within particular peptides were immunoreactive with sera prepared against whole M protein. It was shown that the whole anti-M protein rabbit sera of the respective serotypes could bind to each of the synthetic peptides within that serotype. However, some peptides were more highly immunoreactive than others, thus being better suited for use in the animal studies.

Question: How did the “immunoreactivity by ELISA using rabbit sera prepared against whole M protein” value (“immunoreactivity by ELISA” for short) turn out when CAAPLTRATADNKDELIKRAND [Peptide M18-1] was run?
Answer: confirmed

Question: Which “immunoreactivity by ELISA” value does the source give for “CADHPSYTAAKDEVLSKFSVPGH [Peptide M101-1]” here?
Answer: confirmed

Question: CAEIKKPQADSAWNWPKEYNA [Peptide M4-1] was tested. Which “immunoreactivity by ELISA” value did it give?
Answer: confirmed

Question: How did the “immunoreactivity by ELISA” value turn out when CAELYNKIQELEEGKAELFDK [st2967-6] was run?
Answer: confirmed

Question: CAESPKSTETSANGADKLAD [Peptide M28-1] was tested. Which “immunoreactivity by ELISA” value did it give?
Answer: confirmed

Question: For CAGQSAPKGTNVSADLYNSLWDE [Peptide M11-1], which “immunoreactivity by ELISA” value is on record?
Answer: confirmed

Question: How did the “immunoreactivity by ELISA” value turn out when CDAEQNRANELEKKLSGYEKD [Peptide M82-4] was run?
Answer: confirmed

Question: How did the “immunoreactivity by ELISA” value turn out when CDDRSVSTNSGSVSTPYNNLLNE [Peptide M92-1] was run?
Answer: confirmed

Question: CDENKTLREKQEEYITKIQNE [Peptide M11-3] was tested. Which “immunoreactivity by ELISA” value did it give?
Answer: confirmed

Question: CDKLADAYNTLLTEHEKLRDE [Peptide M28-3] was tested. Which “immunoreactivity by ELISA” value did it give?
Answer: confirmed

Question: Which “immunoreactivity by ELISA” value does the source give for CDKLRLEKEELKTDLQKKERE [Peptide M101-4] here?
Answer: confirmed

Question: Which “immunoreactivity by ELISA” value does the source give for “CDLEEEREKLLNKLDKVEEEHKKD [Peptide M77-3]” here?
Answer: confirmed

Question: For CDLEEERGKLLNKLDKVEEEHK [Peptide M77-4], which “immunoreactivity by ELISA” value is on record?
Answer: confirmed

Question: CDLLAKHGELLSEYDALKEKQDK [Peptide M92-4] was tested. Which “immunoreactivity by ELISA” value did it give?
Answer: confirmed

Question: CDNINRSVSVKDNEKELHNKIAD [Peptide M89-2] was tested. Which “immunoreactivity by ELISA” value did it give?
Answer: confirmed

Question: Which “immunoreactivity by ELISA” value does the source give for CDNQSPALVKKEAKKLNEAEL [Peptide M73-4] here?
Answer: confirmed

Question: CDNQSPAPAPVKKEAKKLNEAE [Peptide M73-5] was tested. Which “immunoreactivity by ELISA” value did it give?
Answer: confirmed

Question: How did the “immunoreactivity by ELISA” value turn out when CDNQSPAPVKKEAKKLNEAE [Peptide M73-1] was run?
Answer: confirmed

Question: Which “immunoreactivity by ELISA” value does the source give for CDPQRAKEALDKYELENHDLK [Peptide M5-2] here?
Answer: confirmed

Question: Which “immunoreactivity by ELISA” value does the source give for CDSAWNWPKEYNALLKENEEL [Peptide M4-2] here?
Answer: confirmed

Question: Which “immunoreactivity by ELISA” value does the source give for CDSDNINRFVSVKDNEKELHN [Peptide M89-6] here?
Answer: confirmed

Question: For CDSDNINRSVSVKDNEKELHNK [Peptide M89-1], which “immunoreactivity by ELISA” value is on record?
Answer: confirmed

Question: Which “immunoreactivity by ELISA” value does the source give for CDSDNSDNINRSVSVKDNEKE [Peptide M89-7] here?
Answer: confirmed

Question: With CDSSRDSSREVTNELTASMWK [Peptide M58-5] as the sequence, how does the “immunoreactivity by ELISA” value read?
Answer: confirmed

Question: CDSSREVTNELAASMWKAQAD [Peptide M58-4] was tested. Which “immunoreactivity by ELISA” value did it give?
Answer: confirmed

Question: Which “immunoreactivity by ELISA” value does the source give for CDSSREVTNELTASMWKAQAD [Peptide M58-1] here?
Answer: confirmed

Question: For CDSSSRDITEAGVSKFWKSKFD [Peptide M82-1], which “immunoreactivity by ELISA” value is on record?
Answer: confirmed

Question: With CDVLNNTPHNQLRDAYAGAFRR [Peptide M41-4] as the sequence, how does the “immunoreactivity by ELISA” value read?
Answer: confirmed

Question: CEAGVSKFWKSKFDAEQNRANE [Peptide M82-3] was tested. Which “immunoreactivity by ELISA” value did it give?
Answer: confirmed

Question: How did the “immunoreactivity by ELISA” value turn out when CEEASNNGQLTLQHKNNALTSE [Peptide M94-1] was run?
Answer: confirmed

Question: For CEEERTFTELPYEARYKAWKSE [Peptide M75-1], which “immunoreactivity by ELISA” value is on record?
Answer: confirmed

Question: CEEHEKVTQAREAVIREMQQR [Peptide M33-1] was tested. Which “immunoreactivity by ELISA” value did it give?
Answer: confirmed

Question: CEEHPDVVAARESVLNNVR [Peptide M43-1] was tested. Which “immunoreactivity by ELISA” value did it give?
Answer: confirmed

Question: With CEELKVEREKYLSYADDKEKDPQ [Peptide M4-4] as the sequence, how does the “immunoreactivity by ELISA” value read?
Answer: confirmed
